Laboratory results reported in the supplement of paper PMC13380429.

What was measured:
Conditions in all cases: 72 h
[1] = tested on: Caco-2; test: cell viability relative to DMSO; higher = less toxic
[2] = tested on: Calu-3; test: as above
[3] = tested on: HepG2; test: as above
[4] = tested on: U2OS; test: as above
[5] = tested on: Vero E6; test: as above
[6] = tested on: Caco-2; test: relative viability EC50 (midpoint between 100% and the lowest measured viability); higher = less toxic
[7] = tested on: Calu-3; test: as above
[8] = tested on: U2OS; test: as above
[9] = tested on: Vero E6; test: as above
[10] = tested on: Caco-2; test: drug sensitivity score (DSS) for viability; higher = more toxic; extreme values may be limits of the assay
[11] = tested on: Calu-3; test: as above
[12] = tested on: HepG2; test: as above
[13] = tested on: U2OS; test: as above
[14] = tested on: Vero E6; test: as above
[15] = tested on: HepG2; test: relative viability EC50 (midpoint between 100% and the lowest measured viability); higher = less toxic

Row | SMILES | cell viability ([1]; 1 nM) [%] | cell viability ([1]; 10 nM) [%] | cell viability ([1]; 100 nM) [%] | cell viability ([1]; 1000 nM) [%] | cell viability ([1]; 10000 nM) [%] | cell viability ([2]; 1 nM) [%] | cell viability ([2]; 10 nM) [%] | cell viability ([2]; 100 nM) [%] | cell viability ([2]; 1000 nM) [%] | cell viability ([2]; 10000 nM) [%] | cell viability ([3]; 1 nM) [%] | cell viability ([3]; 10 nM) [%] | cell viability ([3]; 100 nM) [%] | cell viability ([3]; 1000 nM) [%] | cell viability ([3]; 10000 nM) [%] | cell viability ([4]; 1 nM) [%] | cell viability ([4]; 10 nM) [%] | cell viability ([4]; 100 nM) [%] | cell viability ([4]; 1000 nM) [%] | cell viability ([4]; 10000 nM) [%] | cell viability ([5]; 1 nM) [%] | cell viability ([5]; 10 nM) [%] | cell viability ([5]; 100 nM) [%] | cell viability ([5]; 1000 nM) [%] | cell viability ([5]; 10000 nM) [%] | relative viability EC50 [6] [µM] | relative viability EC50 [7] [µM] | relative viability EC50 [8] [µM] | relative viability EC50 [9] [µM] | drug sensitivity score [10] | drug sensitivity score [11] | drug sensitivity score [12] | drug sensitivity score [13] | drug sensitivity score [14] | relative viability EC50 [15] [µM]
1 | C#C[C@]1(O)CC[C@H]2[C@@H]3CCc4cc(O)ccc4[C@H]3CC[C@@]21C [ETHINYL ESTRADIOL] | 97.2 | 102 | 99.5 | 99.4 | 85.7 | 100 | 100 | 88.4 | 94.3 | 96.4 | 97.3 | 98 | 99.8 | 90.8 | 65.7 | 97.7 | 105 | 98.8 | 102 | 92.9 | 97.7 | 98.1 | 94.2 | 92.9 | 102 | > 10 | > 10 | > 10 | > 10 | 0.2 | 0 | 3 | 0 | 0 | 
2 | O/N=C/c1ccc(-c2ccc(O)c(F)c2)c(Cl)c1O [FERb-033] | 98.1 | 95.2 | 93.4 | 91.9 | 81.4 | 104 | 101 | 100 | 98.9 | 84.8 | 95.7 | 104 | 100 | 99.8 | 71.1 | 102 | 97.1 | 99.5 | 96.9 | 93.9 | 97.7 | 106 | 98.8 | 103 | 95.7 | > 10 | > 10 | > 10 | > 10 | 0.8 | 0.3 | 1.2 | 0 | 0 | 
3 | O=S(=O)(c1cccc2c(Cl)cccc12)N1CCCNCC1 [ML9] | 94.5 | 91.6 | 97.3 | 88 | 87.7 | 110 | 104 | 110 | 99.9 | 98.9 | 96.3 | 96.5 | 90.8 | 93.3 | 74.7 | 95.5 | 93.3 | 96.9 | 102 | 103 | 89 | 96.9 | 87.9 | 96.8 | 94.1 | > 10 | > 10 | > 10 | > 10 | 0.1 | 0 | 1.5 | 0 | 0 | 
4 | O=C(O)c1ccc(Nc2ncc3c(n2)-c2ccc(Cl)cc2C(c2c(F)cccc2F)=NC3)cc1 [MLN8054] | 94.4 | 100 | 87 | 82 | 82.5 | 96.2 | 96.2 | 112 | 91.3 | 86.8 | 109 | 108 | 96.7 | 73.2 | 62.3 | 103 | 105 | 100 | 90 | 76.7 | 103 | 97.9 | 104 | 91.7 | 82.7 | > 10 | > 10 | > 10 | > 10 | 3.3 | 0.6 | 5.1 | 2 | 1.1 | 
5 | CCOC(=O)c1c(O)nc2cccc3c2c1-c1ccccc1C3=O [NQDI-1] | 89.6 | 103 | 89.7 | 92.9 | 98.3 | 91.5 | 96.8 | 95.7 | 95.2 | 104 | 106 | 102 | 98.4 | 76 | 57.2 | 95.6 | 101 | 102 | 97.7 | 101 | 104 | 103 | 102 | 95.9 | 94 | > 10 | > 10 | > 10 | > 10 | 0 | 0 | 5 | 0 | 0 | 
6 | N#Cc1cccc(-c2nc(-c3cccnc3)no2)c1 [NS-9283] | 91.1 | 94.4 | 90.9 | 95 | 93.1 |  |  |  |  |  | 105 | 97.2 | 104 | 101 | 98.8 | 100 | 101 | 97.1 | 98.6 | 99.7 | 99.1 | 98.7 | 101 | 102 | 99.7 | > 10 |  | > 10 | > 10 | 0 |  | 0 | 0 | 0 | > 10
